# In US20250205198A1, “METHODS FOR DELIVERY OF PSYCHEDELIC MEDICATIONS BY INHALATION AND SYSTEMS FOR PERFORMING THE METHODS” (Cybin IRL Limited, priority 2022, published 2025):
# What was measured:
# [1] = Plasma pharmacokinetics after oral gavage co-administration of DMT and DMT-d10 to male rats (Group 2); settings: for bioavailability / AUC(0-t): male, Sprague Dawley, rat, po, 10 mg/kg; for bioavailability / AUC(0-t) / AUC0-1/dose: plasma; for time of peak plasma concentration postdose: oral administration 10 mg/kg; for AUC0-1/dose: dose normalized
# [2] = Plasma pharmacokinetics after intravenous (bolus) co-administration of DMT and DMT-d10 to male rats (Group 4); settings: for AUC0-1/dose: dose normalized; for t1/2: calculated 0.083 to 1.0 hr
# [3] = Brain pharmacokinetics and brain to plasma ratio after intravenous (bolus) co-administration of DMT and DMT-d10 to male rats (Group 4); settings: for Kp: male, Sprague Dawley, rat, iv, 1 mg/kg
# [4] = Plasma pharmacokinetics after 20-minute snout-only inhalation (nebulized aerosol) co-administration of DMT and DMT-d10 to male rats (Group 6); settings: for mean residence time (MRT) after inhalation compared to IV administration, fold greater: inhalation vs IV; for time of highest plasma concentration (first time point taken): after start of inhalation; for AUC0-1/dose: dose normalized
# [5] = AUC0-t, male rats, oral gavage (OG) 10 mg/kg, co-administered
# [6] = male, Sprague Dawley, rat, plasma, iv, 1 mg/kg
# [7] = plasma, male rats, IV bolus 1 mg/kg, co-administered
# [8] = summary table, plasma, intravenous 1 mg/kg
# [9] = brain, male rats, IV bolus 1 mg/kg, co-administered
# [10] = plasma, inhalation 14.3 mg/kg DMT, 15.5 mg/kg DMT-d10
# [11] = plasma, male rats, inhalation 14.3 mg/kg DMT + 15.5 mg/kg DMT-d10
# [12] = summary table, plasma, inhalation 14.3 mg/kg DMT, 15.5 mg/kg DMT-d10
# [13] = male, Sprague Dawley, rat, plasma, inhaled or intranasal, 15.5 mg/kg
Compound,bioavailability [1],"AUC(0-t) [1, 5]",time of peak plasma concentration postdose [1],AUC0-1/dose ([1]; oral 10 mg/kg),time of highest plasma concentration (first time point taken) ([2]; IV bolus 1 mg/kg),"MRT last [2, 6]","AUC0-1/dose ([2]; plasma, intravenous 1 mg/kg)","AUC0-1 [2, 7]","AUC(0-t) [2, 7]","AUC0-1 [2, 8]","t1/2 [2, 8]","AUC0-t (brain) [3, 9]","Cmax (brain) [3, 9]",Kp ([3]; brain),"mean residence time (MRT) after inhalation compared to IV administration, fold greater [4]",time of highest plasma concentration (first time point taken) ([4]; inhalation),"AUC0-1/dose [4, 10]","AUC0-1 [4, 12]",also measured
"CN(C)CCc1c[nH]c2ccccc12 [DMT, N,N-dimethyltryptamine, reference compound]",1.36%,109 ng·h/mL,1 h,1.52,0.083 h,12.7 min,112,112 ng·h/mL,112 ng·h/mL,112 ng·h/mL,10.3 min,1060 ng·h/g,3430 ng/g,9.5,approximately 5 ×,0.333 h,18.2,260 ng·h/mL,"AUC(0-t) ([1]; AUC0-1, plasma, male rats, oral gavage (OG) 10 mg/kg, co-administered): 15.2 ng·h/mL; AUC(0-t) ([1]; AUC0-1, summary table, oral 10 mg/kg): 15.2 ng·h/mL; half-life [2, 6]: 10.3 min; AUC0-inf [2, 7]: 114 ng·h/mL; AUC0-inf (brain) [3, 9]: 1070 ng·h/g; t1/2 (brain) ([3]; brain, male rats, IV bolus 1 mg/kg, calculated 0.25 to 1 hr): 9.3 min; AUC(0-t) [4, 11]: 308 ng·h/mL"
"[2H]C([2H])([2H])N(C([2H])([2H])[2H])C([2H])([2H])C([2H])([2H])c1c[nH]c2ccccc12 [DMT-d10, 2-(1H-indol-3-yl)-N,N-bis(methyl-d3)ethan-1-amine-1,1,2,2-d4]",1.16%,80.2 ng·h/mL,1 h,0.878,0.083 h,19.6 min,75.4,75.4 ng·h/mL,75.4 ng·h/mL,75.4 ng·h/mL,26.8 min,931 ng·h/g,1490 ng/g,12.3,approximately 5 ×,0.333 h,17.0,264 ng·h/mL,"improvement of duration of exposure (MRTlast) by deuteration ([2]; DMT-d10 vs. DMT, after IV): 54.5%; t1/2 ([2]; plasma, male rats, IV bolus 1 mg/kg): 26.8 min; improvement of brain to plasma (B/P) ratio by deuteration ([3]; DMT-d10 vs. DMT, IV 1 mg/kg): approximately 30%; improvement of duration of exposure (MRTlast) by deuteration ([4]; DMT-d10 vs. DMT, after inhalation): 24.6%; increase of inhalation bioavailability by deuteration ([4]; DMT-d10 vs. DMT, inhalation): approximately 40%; inhalation bioavailability, fold greater than oral bioavailability ([4]; inhalation vs oral): approximately 20 ×; AUC0-inf [4, 13]: 384 ng·h/mL; half-life [4, 13]: 325 min; AUC0-1 [4, 11]: 264 ng·h/mL; t1/2 ([4]; summary table, plasma, inhalation 15.5 mg/kg DMT-d10, calculated 0.333 to 3.333 hr): 325 min"
